Assay results taken from US4761414A, “Substituted 1H-pyrimido[1,2-a-]-pyrido[3,4-e]pyrazine 6 oxides” (G. D. Searle & Co., priority 1986, dated 1988).
Converted amounts (≈) assume the structure as drawn.

Assays:
B. fragilis NCTC 10581 = experiment: MIC/MBC against Bacteroides fragilis strain A (96-well microtitre plates, anaerobic chamber); type: cell-based; conditions: Bacteroides fragilis; for MBC: NCTC10581, 99.9% reduction in viable count; for MIC: NCTC10581, 48 h, 48 hours, 37° C., anaerobic
Description: The screening panel utilized in this Example consisted of 5 strains of Bacteroides fragilis. All assays were carried out in 96-well microtitre plates. If an isolate was obtained from either a culture collection or clinical source, the isolate was immediately inoculated into Wilkens-Chalgren broth (Oxoid) and incubated at 37° C. in an anaerobic chamber in an atmosphere of 85% nitrogen, 10% carbon dioxide, and 5% hydrogen for 48 hours. At the end of this time, the viable count was about 10^12 organisms/ml broth. A 1 ml aliquot of each culture was placed in an ampoule and quick frozen in acetone-dry ice mixture and stored in liquid nitrogen. When an inoculum was utilized in an assay, one of the ampoules was thawed and diluted with fresh broth to yield a suspension having a count of 5×10^5 organisms/ml. A 100 μl aliquot of this suspension was inoculated into each well of the microtitre plate. A 2 mg sample of the test compound was dissolved in 0.2 ml of a suitable solvent such as dimethylsulfoxide, polyethylene glycol 200 or methanol. […] After addition of the test solution the final inoculum level was 10^5 cells/ml. The plates were incubated for 48 hours at 37° C. in the anaerobic chamber. The Minimum Inhibitory Concentration (MIC) was read visually. The MIC is defined as the lowest concentration at which there is no detectable growth. The Minimum Bactericidal Concentration (MBC) was determined by taking 50 μl aliquot from each well and placing it in fresh medium. […] The strains of Bacteroides fragilis utilized in the above procedure are identified by letter in accordance with the following legend: |A B. fragilis NCTC 10581

[1] = tested on: B. fragilis MZ-R ATCC 11295; experiment: MIC/MBC against Bacteroides fragilis strain D; type: cell-based; conditions: for MBC: ATCC11295, 99.9% reduction in viable count; for MIC: ATCC11295, 48 h, 48 hours, 37° C., anaerobic
Description: The screening panel utilized in this Example consisted of 5 strains of Bacteroides fragilis. All assays were carried out in 96-well microtitre plates. If an isolate was obtained from either a culture collection or clinical source, the isolate was immediately inoculated into Wilkens-Chalgren broth (Oxoid) and incubated at 37° C. in an anaerobic chamber in an atmosphere of 85% nitrogen, 10% carbon dioxide, and 5% hydrogen for 48 hours. At the end of this time, the viable count was about 10^12 organisms/ml broth. A 1 ml aliquot of each culture was placed in an ampoule and quick frozen in acetone-dry ice mixture and stored in liquid nitrogen. When an inoculum was utilized in an assay, one of the ampoules was thawed and diluted with fresh broth to yield a suspension having a count of 5×10^5 organisms/ml. A 100 μl aliquot of this suspension was inoculated into each well of the microtitre plate. A 2 mg sample of the test compound was dissolved in 0.2 ml of a suitable solvent such as dimethylsulfoxide, polyethylene glycol 200 or methanol. […] After addition of the test solution the final inoculum level was 10^5 cells/ml. The plates were incubated for 48 hours at 37° C. in the anaerobic chamber. The Minimum Inhibitory Concentration (MIC) was read visually. The MIC is defined as the lowest concentration at which there is no detectable growth. The Minimum Bactericidal Concentration (MBC) was determined by taking 50 μl aliquot from each well and placing it in fresh medium.

[2] = tested on: Clostridium perfringens NCTC 8237; experiment: microbe, parasite or virus in culture; type: cell-based; conditions: Clostridium perfringens, NCTC8237, Clostridium perfringens NCTC 8237; procedures of Example 40
[3] = tested on: Campylobacter fetus ss. jejuni NCTC 10842; experiment: MIC vs panel of anaerobes; type: cell-based; conditions: NCTC10842, procedures of Example 40
[4] = tested on: Fusobacterium necrophorum ATCC 11295; experiment: MIC vs panel of anaerobes; type: cell-based; conditions: Fusobacterium necrophorum, ATCC11295, Fusobacterium necrophorum ATCC 11295; procedures of Example 40; read-out: MIC
Peptococcous magnus = experiment: MIC vs panel of anaerobes; type: cell-based; conditions: procedures of Example 40
[5] = tested on: Costridium difficile NCIB 10666; experiment: MIC vs panel of anaerobes; type: cell-based, C. difficile; conditions: Clostridioides difficile, NCIB10666, C. difficile NCIB 10666; procedures of Example 40; read-out: MIC
[6] = tested on: Campylobacter fetus ss. jejuni ATCC 29428; experiment: MIC vs panel of anaerobes; type: cell-based; conditions: ATCC29428, procedures of Example 40
[7] = tested on: Bacteroides melanogenicus NCTC 9336; experiment: MIC vs panel of anaerobes; type: cell-based; conditions: NCTC9336, procedures of Example 40
Peptostreptococcus = experiment: MIC vs panel of anaerobes; type: cell-based; conditions: procedures of Example 40
[8] = tested on: Propionebacterium acnes NCTC 737; experiment: MIC vs panel of anaerobes; type: cell-based; conditions: procedures of Example 40
[9] = tested on: B. melanogenicus ATCC 15032; experiment: MIC vs panel of anaerobes; type: cell-based; conditions: procedures of Example 40
P. anaerobius = experiment: MIC vs panel of anaerobes; type: cell-based; conditions: Peptostreptococcus anaerobius, procedures of Example 40

SMILES	MBC (B. fragilis NCTC 10581) [mg/L]	MIC (B. fragilis NCTC 10581) [mg/L]	MBC [1] [mg/L]	MIC [1] [mg/L]	MIC [2] [mg/L]	MIC [3] [mg/L]	MIC [4] [mg/L]	MIC (Peptococcous magnus) [mg/L]	MIC [5] [mg/L]	MIC [6] [mg/L]	MIC [7] [mg/L]	MIC (Peptostreptococcus) [mg/L]	MIC [8] [mg/L]	MIC [9] [mg/L]	MIC (P. anaerobius) [mg/L]
Cc1ccc(C2=[N+]([O-])c3cnccc3N3CC(C)(C)CN=C23)cc1 [Example 19, 2,3-Dihydro-2,2-dimethyl-5-(4-methylphenyl)-1H-pyrimido[1,2-a]pyrido[3,4-e]pyrazine 6-oxide]	1.5 (≈ 4.68 µM)	1.5 (≈ 4.68 µM)	1.5 (≈ 4.68 µM)	1.5 (≈ 4.68 µM)	1.5 (≈ 4.68 µM)	6.2 (≈ 19.4 µM)	< 0.8	< 0.8							
CC1(C)CN=C2C(c3ccc(Cl)cc3)=[N+]([O-])c3cnccc3N2C1 [Example 17, 2,3-Dihydro-5-(4-chlorophenyl)-2,2-dimethyl-1H-pyrimido[1,2-a]pyrido[3,4-e]pyrazine 6-oxide]	< 0.8	< 0.8	< 0.8	< 0.8	6.2 (≈ 18.2 µM)	50 (≈ 147 µM)	3.1 (≈ 9.1 µM)		< 0.8	100 (≈ 293 µM)	> 100	> 100	> 100		
CC1CN=C2C(c3ccccc3)=[N+]([O-])c3cccnc3N2C1 (stereo not drawn) [Example 32, 2,3-Dihydro-2-methyl-5-phenyl-1H-pyrimido[1,2-a]pyrido[3,2-e]pyrazine 6-oxide]	< 0.8	< 0.8	< 0.8	< 0.8	6.2 (≈ 21.2 µM)	< 0.8	< 0.8	< 0.8							
CCC1(C)CN=C2C(c3ccccc3)=[N+]([O-])c3cnccc3N2C1 (stereo not drawn) [Example 23, 2,3-Dihydro-2-ethyl-2-methyl-5-phenyl-1H-pyrimido[1,2-a]pyrido[3,4-e]pyrazine 6-oxide]	1.5 (≈ 4.68 µM)	1.5 (≈ 4.68 µM)	< 0.8	< 0.8	6.2 (≈ 19.4 µM)	100 (≈ 312 µM)	< 0.8		1.5 (≈ 4.68 µM)	100 (≈ 312 µM)			> 100	> 100	100 (≈ 312 µM)
CCC1(CC)CN=C2C(c3ccccc3)=[N+]([O-])c3cccnc3N2C1 [Example 26, 2,3-Dihydro-2,2-diethyl-5-phenyl-1H-pyrimido[1,2-a]pyrido[3,2-e]pyrazine 6-oxide]	< 0.8	< 0.8	< 0.8	< 0.8	1.5 (≈ 4.49 µM)	25 (≈ 74.8 µM)	1.5 (≈ 4.49 µM)	12.5 (≈ 37.4 µM)	< 0.8	50 (≈ 150 µM)			100 (≈ 299 µM)	100 (≈ 299 µM)	50 (≈ 150 µM)
CCCC1(C)CN=C2C(c3ccccc3)=[N+]([O-])c3cnccc3N2C1 (stereo not drawn) [Example 27, 2,3-Dihydro-2-methyl-5-phenyl-2-propyl-1H-pyrimido[1,2-a]pyrido[3,4-e]pyrazine 6-oxide]	1.5 (≈ 4.49 µM)	1.5 (≈ 4.49 µM)	1.5 (≈ 4.49 µM)	1.5 (≈ 4.49 µM)											
COc1ccc(C2=[N+]([O-])c3cnccc3N3CC(C)(C)CN=C23)cc1OC [Example 21]	< 0.8	< 0.8	< 0.8	< 0.8											
CC1(C)CN=C2C(c3ccc(F)cc3)=[N+]([O-])c3cnccc3N2C1 [Example 33, 2,3-Dihydro-2,2-dimethyl-5-(4-fluorophenyl)-1H-pyrimido[1,2-a]pyrido[3,4-e]pyrazine 6-oxide]	< 0.8	< 0.8	< 0.8	< 0.8											
CC1CN=C2C(c3ccccc3)=[N+]([O-])c3cnccc3N2C1 (stereo not drawn) [Example 34, 2,3-Dihydro-2-methyl-5-phenyl-1H-pyrimido[1,2-a]pyrido[3,4-e]pyrazine 6-oxide]	< 0.8	< 0.8	< 0.8	< 0.8											
[O-][N+]1=C(c2ccccc2)C2=NCC3(CCCCC3)CN2c2ccncc21 [Example 30, Spiro[cyclohexane-1,2'-[2,3]-dihydro-[5]-phenyl-[1H]pyrimido[1,2-a]pyrido[3,4-e]pyrazine [6]-oxide]]	< 0.8	< 0.8	< 0.8	< 0.8	12.5 (≈ 36.1 µM)	100 (≈ 289 µM)	3.1 (≈ 8.95 µM)		< 0.8	100 (≈ 289 µM)			> 100	> 100	100 (≈ 289 µM)
CCCC1(C)CN=C2C(c3ccccc3)=[N+]([O-])c3cccnc3N2C1 (stereo not drawn) [Example 28, 2,3-Dihydro-2-methyl-5-phenyl-2-propyl-1H-pyrimido[1,2-a]pyrido[3,2-e]pyrazine 6-oxide]	< 0.8	< 0.8	< 0.8	< 0.8											
CCC1(CC)CN=C2C(c3ccccc3)=[N+]([O-])c3cnccc3N2C1 [Example 25, 2,3-Dihydro-2,2-diethyl-5-phenyl-1H-pyrimido[1,2-a]pyrido[3,4-e]pyrazine 6-oxide]	3.1 (≈ 9.27 µM)	1.5 (≈ 4.49 µM)	1.5 (≈ 4.49 µM)	1.5 (≈ 4.49 µM)	3.1 (≈ 9.27 µM)	6.2 (≈ 18.5 µM)	31 (≈ 92.7 µM)	100 (≈ 299 µM)	1.5 (≈ 4.49 µM)	100 (≈ 299 µM)			> 100	> 100	100 (≈ 299 µM)
[O-][N+]1=C(c2ccccc2)C2=NCC3(CCCCC3)CN2c2ncccc21 [Example 29, Spiro[cyclohexane-1,2'-[2,3]-dihydro-[5]-phenyl-[1H]pyrimido[1,2-a]pyrido[3,2-e]pyrazine [6]-oxide]]			< 0.8	< 0.8		100 (≈ 289 µM)	6.2 (≈ 17.9 µM)	< 0.8	< 0.8	50 (≈ 144 µM)			> 100	100 (≈ 289 µM)	< 0.8
CC1(C)CN=C2C(c3ccc(F)cc3)=[N+]([O-])c3cccnc3N2C1 [Example 31, 2,3-Dihydro-2,2-dimethyl-5-(4-fluorophenyl)-1H-pyrimido[1,2-a]pyrido[3,2-e]pyrazine 6-oxide]	< 0.8	< 0.8	< 0.8	< 0.8	12.5 (≈ 38.5 µM)	50 (≈ 154 µM)	3.1 (≈ 9.56 µM)		< 0.8	100 (≈ 308 µM)			> 100	> 100	100 (≈ 308 µM)
CCC1(C)CN=C2C(c3ccccc3)=[N+]([O-])c3cccnc3N2C1 (stereo not drawn) [Example 24, 2,3-Dihydro-2-ethyl-2-methyl-5-phenyl-1H-pyrimido[1,2-a]pyrido[3,2-e]pyrazine 6-oxide]	< 0.8	< 0.8	< 0.8	< 0.8	6.2 (≈ 19.4 µM)	100 (≈ 312 µM)	< 0.8		< 0.8	50 (≈ 156 µM)			100 (≈ 312 µM)	100 (≈ 312 µM)	100 (≈ 312 µM)
